22 molecules from patent US20240174671A1, “New 2,3-Dihydro-1H-pyrrolo[3,2-b]pyridine Derivatives as Sigma Ligands” (ACONDICIONAMIENTO TARRASENSE, priority 2021, published 2024) can be followed below.

Read-outs that look alike come from different tables or passages of the source.

For one assay, the target named is T1, human σ1 receptor (Homo sapiens, UniProt Q99720).
T1 construct: expressed in transfected cells; host or cells: HEK-293
In words: Human σ1 receptor radioligand assay ([3H](+)-pentazocine). The class given is binding. As to the method: Human σ1 Receptor Radioligand Assay
(§1) NBS (non-specific binding) was measured by adding 10 μM haloperidol. The binding of the test compound was measured at either one concentration (% inhibition at 1 or 10 µM) or five different concentrations to determine affinity values (Ki). Plates were incubated at 37° C. for 120 minutes. After the incubation period, the reaction mix was then transferred to MultiScreen HTS, FC plates (Millipore), filtered and plates were washed 3 times with ice-cold 10 mM Tris-HCL (pH7.4). Filters were dried and counted at approximately 40% efficiency in a MicroBeta scintillation counter (Perkin-Elmer) using EcoScint liquid scintillation cocktail.

The target in a further assay is T2, human σ2/TMEM97 receptor (Homo sapiens, UniProt Q5BJF2).
T2 construct: expressed in transfected cells; host or cells: HEK-293
Nature of the assay: Binding assay to human σ2/TMEM97 receptor ([3H]-DTG). The settings on record: transfected HEK-293 membranes, 10 nM [3H]-DTG, 25° C., 120 minutes; read-out: Binding σ-[…] (binding to σ2-receptor expressed as Ki). The procedure: Binding Assay to Human σ2/TMEM97 Receptor.
as §1, with “Transfected HEK-293 membranes (15 μg) were incubated with 10 nM [^3H]-1,3-Di-o-tolylguanidine (DTG) in assay buffer containing Tris-HCl 50 mM at pH 8.0. NSB” for “NBS”, “25°” for “37°”, “was” for “was then”, “and” for “and plates were”, “(pH 8.0).” for “(pH7.4).”

Where [1] appears, read: transfected HEK-293 membranes, 5 nM [3H](+)-pentazocine, 37° C., 120 minutes, read-out: Binding σ-[…] (binding to σ1-receptor expressed as Ki).

T1 sequence (Q99720 whole entry): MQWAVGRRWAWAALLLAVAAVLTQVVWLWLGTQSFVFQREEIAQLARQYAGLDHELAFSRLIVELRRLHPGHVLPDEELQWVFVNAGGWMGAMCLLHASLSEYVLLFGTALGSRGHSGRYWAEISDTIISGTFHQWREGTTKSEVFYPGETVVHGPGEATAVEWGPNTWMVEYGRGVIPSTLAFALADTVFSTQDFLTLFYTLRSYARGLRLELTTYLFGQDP
T2 sequence (Q5BJF2 whole entry): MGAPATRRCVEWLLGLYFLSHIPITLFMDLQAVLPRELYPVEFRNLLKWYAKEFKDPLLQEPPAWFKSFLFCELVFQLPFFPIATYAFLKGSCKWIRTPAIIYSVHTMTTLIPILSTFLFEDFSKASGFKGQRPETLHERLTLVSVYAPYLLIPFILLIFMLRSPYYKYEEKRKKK

As for `Cc1ccc2c(n1)C(C)(C)CN2C(=O)NC1CCN(CCc2ccccc2)CC1` [Example 27, 3,3,5-trimethyl-N-(1-phenethylpiperidin-4-yl)-2,3-dihydro-1H-pyrrolo[3,2-b]pyridine-1-carboxamide], the inhibition constant Ki on human σ1 receptor is 100 to 500 nM; at human σ2/TMEM97 receptor, below 100 nM.

Turning to `CCOCCN1CCC(NC(=O)N2CC(C)(C)c3nc(C)ccc32)CC1` [Example 28, N-(1-(2-ethoxyethyl)piperidin-4-yl)-3,3,5-trimethyl-2,3-dihydro-1H-pyrrolo[3,2-b]pyridine-1-carboxamide], the values for the Ki on human σ1 receptor (setting [1]) and on human σ2/TMEM97 receptor were 100 to 500 nM and above 1000 nM, respectively.

On to `CN(Cc1ccccc1)C1CCN(C(=O)N2CC(C)(C)c3ncccc32)CC1` [Example 29, (4-(benzyl(methyl)amino)piperidin-1-yl)(3,3-dimethyl-2,3-dihydro-1H-pyrrolo[3,2-b]pyridin-1-yl)methanone], for which the Ki is 100 to 500 nM at human σ1 receptor (setting [1]) and below 100 nM on human σ2/TMEM97 receptor.

Consider `CC1(C)CN(C(=O)NC2CCN(Cc3ccccc3)CC2)c2cc(F)cnc21` [Example 31, N-(1-benzylpiperidin-4-yl)-6-fluoro-3,3-dimethyl-2,3-dihydro-1H-pyrrolo[3,2-b]pyridine-1-carboxamide], for which the Ki was below 100 nM on human σ1 receptor (setting [1]) and 500 to 1000 nM on human σ2/TMEM97 receptor.

With `CC1(C)CN(C(=O)NC2CCN(Cc3ccccc3)CC2)c2cccnc21` [Example 32, N-(1-benzylpiperidin-4-yl)-3,3-dimethyl-2,3-dihydro-1H-pyrrolo[3,2-b]pyridine-1-carboxamide], the results for the inhibition constant Ki on human σ1 receptor (setting [1]) and at human σ2/TMEM97 receptor were below 100 nM and above 1000 nM, respectively.

Consider `Cc1ccc2c(n1)C(C)(C)CN2C(=O)NC[C@@H](c1ccc(F)cc1)N(C)C` [Example 33, (R)—N-(2-(dimethylamino)-2-(4-fluorophenyl)ethyl)-3,3,5-trimethyl-2,3-dihydro-1H-pyrrolo[3,2-b]pyridine-1-carboxamide], for which the figures for the Ki at human σ1 receptor (setting [1]) and on human σ2/TMEM97 receptor were below 100 nM and above 1000 nM, respectively.

As for `Cc1ccc2c(n1)C(C)(C)CN2C(=O)NC[C@@H](c1cccc(F)c1)N(C)C` [Example 34, (R)—N-(2-(dimethylamino)-2-(3-fluorophenyl)ethyl)-3,3,5-trimethyl-2,3-dihydro-1H-pyrrolo[3,2-b]pyridine-1-carboxamide], the Ki on human σ1 receptor (setting [1]) was 100 to 500 nM; at human σ2/TMEM97 receptor, above 1000 nM.

For the molecule `COc1cccc([C@H](CNC(=O)N2CC(C)(C)c3nc(C)ccc32)N(C)C)c1` [Example 35, (R)—N-(2-(dimethylamino)-2-(3-methoxyphenyl)ethyl)-3,3,5-trimethyl-2,3-dihydro-1H-pyrrolo[3,2-b]pyridine-1-carboxamide], the values for the Ki at human σ1 receptor (setting [1]) and on human σ2/TMEM97 receptor were 100 to 500 nM and above 1000 nM, respectively.

As to `Cc1ccc2c(n1)C(C)(C)CN2C(=O)N1C[C@H]2CN(Cc3ccccc3)C[C@H]2C1` [Example 36, ((3aR,6aS)-5-benzylhexahydropyrrolo[3,4-c]pyrrol-2(1H)-yl)(3,3,5-trimethyl-2,3-dihydro-1H-pyrrolo[3,2-b]pyridin-1-yl)methanone], the Ki was 100 to 500 nM on human σ1 receptor (setting [1]) and 500 to 1000 nM at human σ2/TMEM97 receptor.

Regarding `Cc1ccc2c(n1)C(C)(C)CN2C(=O)N1CCC2(CCN(Cc3ccccc3)C2)C1` (centres unmarked) [Example 37, (7-benzyl-2,7-diazaspiro[4.4]nonan-2-yl)(3,3,5-trimethyl-2,3-dihydro-1H-pyrrolo[3,2-b]pyridin-1-yl)methanone], the Ki at human σ1 receptor (setting [1]) is 100 to 500 nM; at human σ2/TMEM97 receptor, below 100 nM.

For the molecule `Cc1ccc2c(n1)C(C)(C)CN2C(=O)N1CCC2(CCN(Cc3ccccc3)C2)CC1` [Example 38, (2-benzyl-2,8-diazaspiro[4.5]decan-8-yl)(3,3,5-trimethyl-2,3-dihydro-1H-pyrrolo[3,2-b]pyridin-1-yl)methanone], the Ki is 100 to 500 nM on human σ1 receptor (setting [1]) and below 100 nM at human σ2/TMEM97 receptor.

As for `Cc1ccc2c(n1)C(C)(C)CN2C(=O)N1CC[C@H](N(C)Cc2ccccc2)C1` [Example 39, (S)-(3-(benzyl(methyl)amino)pyrrolidin-1-yl)(3,3,5-trimethyl-2,3-dihydro-1H-pyrrolo[3,2-b]pyridin-1-yl)methanone], the Ki was 100 to 500 nM at human σ1 receptor (setting [1]) and above 1000 nM on human σ2/TMEM97 receptor.

Regarding `CN(Cc1ccccc1)C1CCN(C(=O)N2CC(C)(C)c3nc(C#N)ccc32)CC1` [Example 40, 1-(4-(benzyl(methyl)amino)piperidine-1-carbonyl)-3,3-dimethyl-2,3-dihydro-1H-pyrrolo[3,2-b]pyridine-5-carbonitrile], the Ki at human σ1 receptor (setting [1]) and at human σ2/TMEM97 receptor was below 100 nM throughout.

For `Cc1ccc2c(n1)C(C)(C)CN2C(=O)NC1CCN(CC(C)C)CC1` [Example 41, N-(1-isobutylpiperidin-4-yl)-3,3,5-trimethyl-2,3-dihydro-1H-pyrrolo[3,2-b]pyridine-1-carboxamide], the Ki is 100 to 500 nM on human σ1 receptor (setting [1]) and above 1000 nM at human σ2/TMEM97 receptor.

Turning to `Cc1ccc2c(n1)C(C)(C)CN2C(=O)NC1CCN(CC2CCOCC2)CC1` [Example 42, 3,3,5-trimethyl-N-(1-((tetrahydro-2H-pyran-4-yl)methyl)piperidin-4-yl)-2,3-dihydro-1H-pyrrolo[3,2-b]pyridine-1-carboxamide], the Ki is 100 to 500 nM at human σ1 receptor (setting [1]) and above 1000 nM at human σ2/TMEM97 receptor.

With `Cc1ccc2c(n1)C(C)(C)CN2C(=O)N1CC[C@@H](N(C)Cc2ccccc2)C1` [Example 43, (R)-(3-(benzyl(methyl)amino)pyrrolidin-1-yl)(3,3,5-trimethyl-2,3-dihydro-1H-pyrrolo[3,2-b]pyridin-1-yl)methanone], the Ki at human σ1 receptor (setting [1]) is 500 to 1000 nM; on human σ2/TMEM97 receptor it was above 1000 nM.

Take `Cc1ccc2c(n1)C(C)(C)CN2C(=O)NC1CCN(Cc2ccc(F)c(F)c2)CC1` [Example 44, N-(1-(3,4-difluorobenzyl)piperidin-4-yl)-3,3,5-trimethyl-2,3-dihydro-1H-pyrrolo[3,2-b]pyridine-1-carboxamide]: the Ki at human σ1 receptor (setting [1]) was below 100 nM; on human σ2/TMEM97 receptor, above 1000 nM.

For the molecule `CN(Cc1ccc(F)c(C#N)c1)C1CCN(C(=O)N2CC(C)(C)c3ncccc32)CC1` [Example 45, 5-(((1-(3,3-dimethyl-2,3-dihydro-1H-pyrrolo[3,2-b]pyridine-1-carbonyl)piperidin-4-yl)(methyl)amino)methyl)-2-fluorobenzonitrile], the values for the Ki at human σ1 receptor (setting [1]) and on human σ2/TMEM97 receptor were above 1000 nM and below 100 nM, respectively.

With `CC1(C)CN(C(=O)NC2CCN(Cc3ccc(F)c(F)c3)CC2)c2cccnc21` [Example 46, N-(1-(3,4-difluorobenzyl)piperidin-4-yl)-3,3-dimethyl-2,3-dihydro-1H-pyrrolo[3,2-b]pyridine-1-carboxamide], the Ki at human σ1 receptor (setting [1]) was below 100 nM; on human σ2/TMEM97 receptor, above 1000 nM.

For `CC1(C)CN(C(=O)NC2CCN(Cc3cccc(F)c3)CC2)c2cccnc21` [Example 47, N-(1-(3-fluorobenzyl)piperidin-4-yl)-3,3-dimethyl-2,3-dihydro-1H-pyrrolo[3,2-b]pyridine-1-carboxamide], the Ki at human σ1 receptor (setting [1]) was below 100 nM; on human σ2/TMEM97 receptor, above 1000 nM.

Turning to `CC1(C)CN(C(=O)NC2CCN(Cc3ccc(F)cc3)CC2)c2cccnc21` [Example 48, N-(1-(4-fluorobenzyl)piperidin-4-yl)-3,3-dimethyl-2,3-dihydro-1H-pyrrolo[3,2-b]pyridine-1-carboxamide], the figures for the Ki on human σ1 receptor (setting [1]) and on human σ2/TMEM97 receptor were below 100 nM and above 1000 nM, respectively.

Consider `Cc1ccc2c(n1)CCN2C(=O)N1CCC(N(C)Cc2ccccc2)CC1` [Example 49], for which the Ki at human σ1 receptor (setting [1]) and at human σ2/TMEM97 receptor was 100 to 500 nM in each case.

A word on the Ki: it is a dissociation constant, usually derived from enzyme kinetics or from competition with a known ligand.
